How the values were obtained:
Type in all cases: in vitro ADME
CYP2C9 [1] = target: T1, CYP2C9 (Homo sapiens, UniProt P11712); experiment: Time-dependent inhibition assay of CYP2C9 in human liver microsomes; details: data not shown
T1 construct: The pooled human liver microsomes (HLMs) were obtained from BD Biosciences Discovery Labware; tissue BD Biosciences Discovery Labware; host or cells: pooled human liver microsomes
Procedure: (§1) The time-dependent inhibition assay was conducted with an incubation time of 0, 5, 10, 15, and 30 min after a 30 min pre-incubation with 1 mg/mL HLMs in the presence of NADPH-generating system at 37 °C.

CYP3A4 [2] = target: T2, CYP3A4 (Homo sapiens, UniProt P08684); experiment: CYP3A4 inhibition in pooled human liver microsomes (testosterone 6β-hydroxylation)
T2 construct: The pooled human liver microsomes (HLMs) were obtained from BD Biosciences Discovery Labware; tissue BD Biosciences Discovery Labware; host or cells: pooled human liver microsomes
Procedure: (§2) The pooled human liver microsomes (HLMs) were obtained from BD Biosciences Discovery Labware. The HLMs were incubated with specific substrates of corresponding CYP450 isoenzymes under the reaction conditions in Table 1 according to previous reports (Dong et al. [2018]; Zhang et al. [2019]; Zhang, Feng, et al. [2020]). The incubation system also included alpinetin (Figure 1, 99%, Chengdu Munster Biothechnology Co, China, or specific inhibitors) and an β-NADPH generating system as previously reported in the potassium phosphate buffer with a final volume of 200 μL. The β-NADPH generating system contained NADP^+, glucose-6-phosphate, glucose-6-phosphate dehydrogenase, and MgCl2, which was used to initiate the reaction after a pre-incubation of 3 min. At the end of the reactions, the acetonitrile or trichloroacetic acid (for the evaluation of CYP2A6) was added for the termination of the reactions. All reagents were of at least analytical reagent grade obtained from Sigma Aldrich (USA). All incubations were performed in triplicate and the concentrations of metabolites were analysed with HPLC.
(§3) The effect of alpinetin on the activity of CYP1A2, 2A6, 3A4, 2C8, 2C9, 2C19, 2D6, and 2E1 was first evaluated with a concentration of 100 μM. The isoenzymes that were inhibited by alpinetin were further incubated with 0, 2.5, 5, 10, 25, 50, and 100 μM alpinetin to obtain the values of IC50.
(§4) Meanwhile, the kinetic studies were conducted in the presence of various substrate concentrations to obtain the values of Ki. The inhibition model was evaluated according to the following equations: v = (VmaxS)/[Km(1 + I/Ki) + S] for the competitive inhibition and v = (VmaxS)/[(Km + S(1 + I/KiKI)] for the non-competitive inhibition. The I is the concentration of the compound, Ki is the inhibition constant, S is the concentration of the substrate, and Km is the substrate concentration at half the maximum velocity (Vmax) of the reaction.

CYP2E1 [3] = target: T3, CYP2E1 (Homo sapiens, UniProt P05181); experiment: CYP2E1 inhibition in pooled human liver microsomes (chlorzoxazone 6-hydroxylation)
T3 construct: The pooled human liver microsomes (HLMs) were obtained from BD Biosciences Discovery Labware; tissue BD Biosciences Discovery Labware; host or cells: pooled human liver microsomes
Procedure: as §2, §3, §4

CYP2E1 [4] = target: T3, CYP2E1; experiment: Time-dependent inhibition assay of CYP2E1 in human liver microsomes; details: data not shown
Procedure: as §1

CYP2C9 [5] = target: T1, CYP2C9; experiment: CYP2C9 inhibition in pooled human liver microsomes (diclofenac 4′-hydroxylation)
Procedure: as §2, §3, §4

CYP3A4 [6] = target: T2, CYP3A4; experiment: Time-dependent inhibition assay of CYP3A4 in human liver microsomes
Procedure: as §1

[7] = 100 μM alpinetin, relative to negative control
[8] = competitive model, various substrate concentrations

T2 sequence (P08684 whole entry): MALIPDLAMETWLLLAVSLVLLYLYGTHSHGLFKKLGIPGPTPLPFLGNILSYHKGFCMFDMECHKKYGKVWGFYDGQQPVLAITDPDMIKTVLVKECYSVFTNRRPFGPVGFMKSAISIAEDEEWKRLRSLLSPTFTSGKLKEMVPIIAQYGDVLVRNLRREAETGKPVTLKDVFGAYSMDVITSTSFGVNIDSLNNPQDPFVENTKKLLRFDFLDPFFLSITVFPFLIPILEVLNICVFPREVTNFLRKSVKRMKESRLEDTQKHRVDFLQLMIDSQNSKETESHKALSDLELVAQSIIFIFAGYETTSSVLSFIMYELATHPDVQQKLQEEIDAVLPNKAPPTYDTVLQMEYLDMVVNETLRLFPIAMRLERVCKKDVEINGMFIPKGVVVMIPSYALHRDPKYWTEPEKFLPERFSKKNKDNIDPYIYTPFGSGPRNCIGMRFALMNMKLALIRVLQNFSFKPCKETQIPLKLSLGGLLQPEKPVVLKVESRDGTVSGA
T1 sequence (P11712 whole entry): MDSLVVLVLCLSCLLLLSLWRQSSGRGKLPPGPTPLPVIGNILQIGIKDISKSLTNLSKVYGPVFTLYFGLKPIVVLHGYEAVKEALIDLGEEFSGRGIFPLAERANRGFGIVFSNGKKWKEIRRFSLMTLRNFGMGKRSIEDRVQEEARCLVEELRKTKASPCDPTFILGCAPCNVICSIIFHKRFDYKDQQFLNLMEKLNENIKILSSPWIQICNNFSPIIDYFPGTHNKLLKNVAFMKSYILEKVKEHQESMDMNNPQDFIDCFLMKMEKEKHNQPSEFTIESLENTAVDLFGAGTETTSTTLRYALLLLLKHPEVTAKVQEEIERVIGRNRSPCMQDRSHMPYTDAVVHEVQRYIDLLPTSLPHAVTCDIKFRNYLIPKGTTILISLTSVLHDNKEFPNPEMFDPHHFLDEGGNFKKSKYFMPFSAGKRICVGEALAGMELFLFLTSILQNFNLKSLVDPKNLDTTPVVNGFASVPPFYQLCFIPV
T3 sequence (P05181 whole entry): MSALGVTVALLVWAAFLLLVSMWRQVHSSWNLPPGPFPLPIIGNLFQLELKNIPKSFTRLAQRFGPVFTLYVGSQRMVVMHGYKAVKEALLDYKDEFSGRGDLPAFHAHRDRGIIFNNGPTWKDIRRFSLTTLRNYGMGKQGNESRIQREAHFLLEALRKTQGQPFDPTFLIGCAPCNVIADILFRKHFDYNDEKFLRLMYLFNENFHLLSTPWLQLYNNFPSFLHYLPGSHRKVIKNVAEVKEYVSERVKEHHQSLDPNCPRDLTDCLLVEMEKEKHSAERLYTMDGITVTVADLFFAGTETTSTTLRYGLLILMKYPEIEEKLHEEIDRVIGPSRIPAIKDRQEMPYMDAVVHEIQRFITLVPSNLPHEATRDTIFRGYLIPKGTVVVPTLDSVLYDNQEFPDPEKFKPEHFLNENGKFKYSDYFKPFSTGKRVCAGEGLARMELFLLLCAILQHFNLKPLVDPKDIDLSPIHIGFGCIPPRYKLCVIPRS

COc1cc(O)cc2c1C(=O)C[C@@H](c1ccccc1)O2 [alpinetin]
Time dependence of CYP2C9 inhibition (CYP2C9 [1]): no time-dependent characteristics
Effect on CYP3A4 activity (CYP3A4 [2]; [7]): dramatically inhibitory effect
Inhibition model of CYP3A4 (CYP3A4 [2]; best-fitted model, stable Km): non-competitive
Ki (CYP3A4 [2]; non-competitive model, 0, 2, 5, 10, and 20 μM alpinetin, various concentrations of testosterone): 4.09 µM
IC50 (CYP3A4 [2]; pooled HLMs, 0-100 μM alpinetin, testosterone 50 μM): 8.23 µM
Effect on CYP2E1 activity (CYP2E1 [3]; [7]): dramatically inhibitory effect
Ki (CYP2E1 [3]; [8]): 5.4 µM
IC50 (CYP2E1 [3]; pooled HLMs, 0-100 μM alpinetin, chlorzoxazone 120 μM): 11 µM
Inhibition model of CYP2E1 (CYP2E1 [3]; stable Vmax): competitively
Time dependence of CYP2E1 inhibition (CYP2E1 [4]): no time-dependent characteristics
Effect on CYP2C9 activity (CYP2C9 [5]; [7]): dramatically inhibitory effect
Ki (CYP2C9 [5]; [8]): 6.42 µM
IC50 (CYP2C9 [5]; pooled HLMs, 0-100 μM alpinetin, diclofenac 10 μM): 12.6 µM
Inhibition model of CYP2C9 (CYP2C9 [5]; stable Vmax): competitively
Kinact of time-dependent CYP3A4 inhibition (CYP3A4 [6]; 30 min pre-incubation, 1 mg/mL HLMs, substrate approx. 4-fold Km): 0.041 min⁻¹
Time dependence of CYP3A4 inhibition (CYP3A4 [6]; incubation 0, 5, 10, 15, and 30 min): time-dependent

— paper PMC9154758, “Alpinetin suppresses CYP3A4, 2C9, and 2E1 activity in vitro” (Pharmaceutical Biology, 2022)
